Reference: PMC10926604, “Discovery of a novel small molecule as CD47/SIRPα and PD-1/PD-L1 dual inhibitor for cancer immunotherapy” (Cell Communication and Signaling : CCS, 2024)
“Also recorded” adds a separate entry of the source.

Assays:
hTIGIT/hPVR = hTIGIT/hPVR (Homo sapiens, UniProt P15151+Q495A1); assay: Blockade of other immune checkpoint pathways, TIGIT/PVR; assay type: cell-based; conditions: Fig. S2
murine PD-L1 (mPD-L1) = target: T1, murine PD-L1 (mPD-L1) (Mus musculus, UniProt Q9EP73); assay: MST binding assay, murine PD-L1; conditions: PD-L1-IgV-His, read-out: dissociation constant (KD) for murine PD-L1
T1 construct: PD-L1-IgV-His (human: 10,084-H08H, mouse: 50,010-M08H, Sino Biological); His; purchased Sino Biological 50,010-M08H
Description: (§1) SIPRα-IgV-His (human: SIA-H5225, mouse: SIA-M52H4, ACRO Biosystems) and PD-L1-IgV-His (human: 10,084-H08H, mouse: 50,010-M08H, Sino Biological) proteins were labeled with Red-NHS647 dye (NT-MO-L001, NanoTemper) for subsequent experiments. SMC18 (C385-0664, ChemDiv) was serially diluted using PBST (from 0.0191 μM to 200 μM) and mixed with the labeled proteins. The samples were then aspirated using standard capillaries and assayed by MST instrument (Monolith NT.115, NanoTemper), and the results were analyzed using the analytical software Monolith NT.115 system to calculate the dissociation constant (KD) values.

PD-1 = assay: Tyrosine phosphorylation assay of PD-1, Jurkat/CHO-K1-hPD-L1 co-culture; assay type: cell-based, human; conditions: 50 μM, stimulated Jurkat with CHO-K1-hPD-L1 cells, 30 min, Western blotting
Description: Jurkat cells were stimulated with of PMA (25 ng/mL) and PHA (1 μg/mL) for 24 h. Stimulated Jurkat cells (2 × 10^6 cells/well) were co-cultured with CHO-K1-PD-L1 cells (1 × 10^7 cells/well). The co-cultures were treated with PBS, SMC18 (50 μM), or anti-human PD-1 (a17188b, Biolegend) and incubated at 37℃ for 30 min. After PBS washing, the cells were collected by centrifugation and lysed. Finally, cell lysates were collected for immunoprecipitation and Western blotting.
In brief, the protein samples were separated by SDS-PAGE using a 4% stacking gel and an 8 ~ 10% main gel and transferred to a polyvinylidene difluoride (PVDF) membrane. The membrane was blocked with 5% milk at room temperature for 1–2 h and then incubated with anti-SIRPα (dilution 1:1000, AB8120, Abcam), anti-PD-1 (dilution 1:200, ab52587, Abcam) or anti-Phosphotyrosine (dilution 1:1000, 05–321, Millipore) dissolved in primary antibody dilution buffer overnight at 4 °C. Then the membrane was washed and incubated with appropriate HRP-coupled goat anti-rabbit IgG (D110058, Sangon Biotech) and HRP-coupled goat anti-mouse IgG (D110087, Sangon Biotech) for 1–2 h at room temperature. Finally, the membranes were exposed using an enhanced chemiluminescence (ECL) detection kit (P1030, Applygen). Results were analyzed by ImageJ software (NIH, Bethesda, MD, United States).

human PD-1/PD-L1 = target: T2, human PD-1/PD-L1 (Homo sapiens, UniProt Q9NZQ7); assay: Cell-based blocking assay, human PD-1/PD-L1; conditions: CHO-K1-hPD-1 cells, PD-L1-Fc, flow cytometry; read-out: IC50 for blocking human PD-1/PD-L1 interaction
T2 construct: purchased Sino Biological 10,084-H02H; host or cells: CHO-K1-hPD-1 cells carry the partner (lentiviral transfection)
Description: The CHO-K1 cell line with stable expression of CD47 and PD-1 was constructed previously by our group. SMC18 was serially diluted using PBS 7.2 (containing 1% DMSO) and incubated with 100 ng of SIRPα-Fc protein (human: SIA-H5251, mouse: SIA-M5258, ACRO Biosystems) and 50 ng of PD-L1-Fc protein (human: 10,084-H02H, mouse: 50,010-M02H, Sino Biological) on ice for 30 min. The mixture was then added to the corresponding CHO-K1-CD47 or CHO-K1-PD-1 cells and further incubated on ice for 30 min. Afterward, PE-conjugated anti-human IgG (Fc) antibody (A18272, eBioscience) was added. The mean fluorescence intensity (MFI) of the cells was detected using flow cytometry (BD FACSCalibur) and the blocking efficiency was calculated.

murine SIRPα (mSIRPα) = target: T3, murine SIRPα (mSIRPα) (Mus musculus, UniProt P97797); assay: MST binding assay, murine SIRPα; conditions: SIRPα-IgV-His, read-out: dissociation constant (KD) for murine SIRPα
T3 construct: SIPRα-IgV-His (human: SIA-H5225, mouse: SIA-M52H4, ACRO Biosystems); His; purchased ACRO Biosystems SIA-M52H4
Description: as §1

hTIM-3/hGal-9 = hTIM-3/hGal-9 (Homo sapiens, UniProt O00182+Q8TDQ0); assay: Blockade of other immune checkpoint pathways, TIM-3/Gal-9; assay type: cell-based; conditions: Fig. S2
MC38 tumor-bearing mice = assay: Ex vivo flow cytometry of immune cells from MC38 tumor-bearing mice; assay type: in vivo, mouse; conditions: SMC18 treatment vs NS
Description: At the end of treatment, the tumor-bearing mice were euthanized, and the tumor tissues were removed, minced and enzymatically digested with DNAase I (DN25, Sigma) and collagenase IV (17,104–019, Invitrogen) at 37 °C for 40 min. The digested tumor suspensions were filtered by nylon filter. Immune cell infiltration in the tumor tissue was analyzed by flow cytometry. For the detection of CD8^+ T cells at the tumor site, single-cell suspensions were stained with anti-mouse CD45-FITC (30-F11, eBioscience), anti-mouse CD3-PerCP-eFluor710 (17A2, eBioscience), anti-mouse CD8α-PE (53–6.7, eBioscience) or isotype control. To detect macrophage infiltration at tumor sites, single cell suspensions were stained with anti-mouse CD45-FITC (30-F11, eBioscience), anti-mouse CD11b-eFluor450 (M1/70, eBioscience), anti-mouse F4/80-PerCP-Cyanine5.5 (BM8, eBioscience), anti-mouse CD11c-APC (M418, eBioscience), anti-mouse CD206-PE (MR6F3, eBioscience) or isotype control.
To assess cytokine secretion from tumor sites and immune organs, spleens, draining lymph nodes and tumors from mice were dissected and ground into single cell suspensions, followed by filtration and incubation with […] transport inhibitors, PMA (20 ng/mL, 16561–29-8, Sigma) and ionomycin (1 µM, I0634, Sigma) for 4 h in a 37 °C incubator. The single cell suspensions of draining lymph nodes and spleens were stained with anti-mouse CD3-PerCP-eFluor710 (17A2, eBioscience), anti-mouse CD8α-PE (53–6.7, eBioscience), anti-mouse IFN-γ-APC (XMG1.2, eBioscience) or isotype control. Tumor cells were stained with anti-mouse CD45-FITC (30-F11, eBioscience), anti-mouse CD3-PerCP-eFluor710 (17A2, eBioscience), anti-mouse CD8α-PE (53–6.7, eBioscience), anti-mouse IFN-γ-APC (XMG1.2, eBioscience) or isotype control. Finally, the samples were detected by flow cytometry.

hTIGIT/hPVR, sequence (Q495A1 22-244): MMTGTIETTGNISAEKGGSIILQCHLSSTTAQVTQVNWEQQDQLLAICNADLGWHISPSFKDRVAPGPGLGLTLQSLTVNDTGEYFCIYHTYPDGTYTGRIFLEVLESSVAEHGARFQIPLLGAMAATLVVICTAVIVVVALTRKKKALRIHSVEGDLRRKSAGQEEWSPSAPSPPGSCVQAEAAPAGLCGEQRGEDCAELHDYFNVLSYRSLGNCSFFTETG
hTIGIT/hPVR, sequence (P15151 21-417): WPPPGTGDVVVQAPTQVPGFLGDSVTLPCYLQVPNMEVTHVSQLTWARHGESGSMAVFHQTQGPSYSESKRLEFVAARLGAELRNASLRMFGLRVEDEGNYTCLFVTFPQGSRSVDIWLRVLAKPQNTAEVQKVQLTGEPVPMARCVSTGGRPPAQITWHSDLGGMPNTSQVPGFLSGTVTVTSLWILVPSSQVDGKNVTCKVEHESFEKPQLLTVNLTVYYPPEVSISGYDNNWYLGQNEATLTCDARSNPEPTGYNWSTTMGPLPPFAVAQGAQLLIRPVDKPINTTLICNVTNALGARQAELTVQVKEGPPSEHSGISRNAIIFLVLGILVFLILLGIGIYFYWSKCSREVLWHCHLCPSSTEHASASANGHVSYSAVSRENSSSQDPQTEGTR
hTIM-3/hGal-9, sequence (Q8TDQ0 22-301): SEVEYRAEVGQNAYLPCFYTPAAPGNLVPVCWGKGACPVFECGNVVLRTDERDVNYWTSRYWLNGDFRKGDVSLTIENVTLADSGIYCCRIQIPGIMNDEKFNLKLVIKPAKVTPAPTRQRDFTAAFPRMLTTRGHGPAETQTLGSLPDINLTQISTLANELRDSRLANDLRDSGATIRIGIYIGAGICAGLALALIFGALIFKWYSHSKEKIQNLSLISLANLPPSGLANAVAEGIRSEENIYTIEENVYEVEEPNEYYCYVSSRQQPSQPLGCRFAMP
hTIM-3/hGal-9, sequence (O00182 whole entry): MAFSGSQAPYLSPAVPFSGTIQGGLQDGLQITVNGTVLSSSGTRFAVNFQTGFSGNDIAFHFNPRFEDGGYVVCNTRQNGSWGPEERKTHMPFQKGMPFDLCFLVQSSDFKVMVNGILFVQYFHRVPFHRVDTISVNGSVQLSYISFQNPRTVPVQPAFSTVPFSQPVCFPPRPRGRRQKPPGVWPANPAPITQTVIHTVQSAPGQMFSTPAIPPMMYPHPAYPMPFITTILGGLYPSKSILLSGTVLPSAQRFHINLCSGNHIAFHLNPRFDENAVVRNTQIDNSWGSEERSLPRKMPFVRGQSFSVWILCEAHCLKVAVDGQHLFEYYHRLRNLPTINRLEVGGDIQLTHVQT
T2 sequence (Q9NZQ7 19-239 limits assumed): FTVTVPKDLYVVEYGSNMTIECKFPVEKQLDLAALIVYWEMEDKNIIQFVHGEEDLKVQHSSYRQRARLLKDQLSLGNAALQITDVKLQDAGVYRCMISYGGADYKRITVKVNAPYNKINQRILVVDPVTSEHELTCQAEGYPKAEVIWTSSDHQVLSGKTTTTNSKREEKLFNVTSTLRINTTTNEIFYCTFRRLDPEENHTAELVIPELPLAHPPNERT
T3 sequence (P97797 32-137 limits assumed): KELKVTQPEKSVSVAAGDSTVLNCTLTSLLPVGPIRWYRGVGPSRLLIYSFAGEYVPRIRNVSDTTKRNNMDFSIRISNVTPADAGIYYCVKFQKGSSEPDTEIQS
T1 sequence (Q9EP73 19-127 limits assumed): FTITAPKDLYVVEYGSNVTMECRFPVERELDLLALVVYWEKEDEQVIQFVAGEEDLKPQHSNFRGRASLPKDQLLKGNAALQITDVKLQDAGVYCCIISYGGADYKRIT

Structure (SMILES): Cc1cc(C)cc(NS(=O)(=O)c2ccc3[nH]cc(C(=O)NCCc4ccccc4)c(=O)c3c2)c1 [SMC18]
- inhibitory effect on hTIGIT/hPVR pathway (hTIGIT/hPVR): no blocking effect; also recorded: did not impede
- Kd (murine PD-L1 (mPD-L1)): 0.025 ± 0.03 µM
- levels of phosphorylated PD-1 (PD-1): decreased
- IC50 (human PD-1/PD-L1): 19.7 ± 7 µM
- Kd (murine SIRPα (mSIRPα)): 2.49 ± 1.9 µM
- inhibitory effect on hTIM-3/hGal-9 pathway (hTIM-3/hGal-9): no blocking effect; also recorded: did not impede
- amount of CD8+ T cell secreting IFN-γ in the tumor tissue (MC38 tumor-bearing mice; MC38 tumor): significantly increased
- infiltration of CD8+ T cells in the tumor tissue (MC38 tumor-bearing mice; MC38 tumor): significantly increased
- amount of CD8+ T secreting IFN-γ in the draining lymph nodes (MC38 tumor-bearing mice): increased
- amount of CD8+ T secreting IFN-γ in the spleen (MC38 tumor-bearing mice): increased
- proportion of M1-type macrophages in tumor (MC38 tumor-bearing mice): increased
